Measurements reported in patent publication US20160158236A1, “PHARMACEUTICAL COMPOSITION COMPRISING A TRPA1 ANTAGONIST AND A STEROID” (GLENMARK PHARMACEUTICALS S.A., priority 2011, published 2016).

How the values were obtained:
[1] = test system: ovalbumin sensitized female Balb/C mice; assay: Ovalbumin induced inflammation in ovalbumin sensitized mice (Compound 52 and prednisolone), BAL cell counts; type: in vivo; details: 1 mg/Kg p.o. (combination: 1 mg/Kg of each compound); BAL 24 hours after ovalbumin challenge
Procedure: Sensitized mice were randomly assigned to different treatment groups. […] Animals were administered Compound 52 orally 24 hrs before first ovalbumin challenge and 2 hrs before ovalbumin challenge from Day-11 to 13. Animals were administered Prednisolone orally 24 hrs before first ovalbumin challenge and 2 hrs before ovalbumin challenge from Day-11 to 13. The animals were divided into groups as per Table 2.
Broncho Alveolar Lavage (BAL) was performed at 24 hours after challenge with ovalbumin. Animals were anesthetized with an overdose of urethane, trachea was exposed and BAL was performed 4 times using 0.3 mL PBS. All aspirates of BAL were pooled and total number of cells determined using a hemocytometer. The BAL was centrifuged, and the cell pellet was used for preparation of smears. Slides were stained with Giemsa stain and a differential cell count of 500 cells based on standard morphology was performed manually.
Calculations: The total number of eosinophils in each BAL sample was calculated using the formula: […]
Percent inhibition of eosinophils was calculated using the following formula: […]

[2] = target: T1, human TRPA1 receptor (Homo sapiens, UniProt O75762); assay: Inhibition of AITC induced cellular uptake of radioactive calcium in human TRPA1 expressing CHO cells; type: cell-based; details: read-out: hTRPA1 IC50 values
T1 construct: expressed in transfected cells; host or cells: CHO cells
Procedure: Test compound solution is prepared in a suitable solvent. Human TRPA1 expressing CHO cells are grown in suitable medium. Cells are treated with test compounds followed by addition of AITC. Cells are washed, lysed and the radioactivity in the lysate is measured in Packard Top count after addition of liquid scintillant.
The concentration response curves for compounds are plotted as a % of maximal response obtained in the absence of test antagonist, and the IC50 values are calculated from such concentration response curve by nonlinear regression analysis using GraphPad PRISM software.

T1 sequence (O75762 whole entry): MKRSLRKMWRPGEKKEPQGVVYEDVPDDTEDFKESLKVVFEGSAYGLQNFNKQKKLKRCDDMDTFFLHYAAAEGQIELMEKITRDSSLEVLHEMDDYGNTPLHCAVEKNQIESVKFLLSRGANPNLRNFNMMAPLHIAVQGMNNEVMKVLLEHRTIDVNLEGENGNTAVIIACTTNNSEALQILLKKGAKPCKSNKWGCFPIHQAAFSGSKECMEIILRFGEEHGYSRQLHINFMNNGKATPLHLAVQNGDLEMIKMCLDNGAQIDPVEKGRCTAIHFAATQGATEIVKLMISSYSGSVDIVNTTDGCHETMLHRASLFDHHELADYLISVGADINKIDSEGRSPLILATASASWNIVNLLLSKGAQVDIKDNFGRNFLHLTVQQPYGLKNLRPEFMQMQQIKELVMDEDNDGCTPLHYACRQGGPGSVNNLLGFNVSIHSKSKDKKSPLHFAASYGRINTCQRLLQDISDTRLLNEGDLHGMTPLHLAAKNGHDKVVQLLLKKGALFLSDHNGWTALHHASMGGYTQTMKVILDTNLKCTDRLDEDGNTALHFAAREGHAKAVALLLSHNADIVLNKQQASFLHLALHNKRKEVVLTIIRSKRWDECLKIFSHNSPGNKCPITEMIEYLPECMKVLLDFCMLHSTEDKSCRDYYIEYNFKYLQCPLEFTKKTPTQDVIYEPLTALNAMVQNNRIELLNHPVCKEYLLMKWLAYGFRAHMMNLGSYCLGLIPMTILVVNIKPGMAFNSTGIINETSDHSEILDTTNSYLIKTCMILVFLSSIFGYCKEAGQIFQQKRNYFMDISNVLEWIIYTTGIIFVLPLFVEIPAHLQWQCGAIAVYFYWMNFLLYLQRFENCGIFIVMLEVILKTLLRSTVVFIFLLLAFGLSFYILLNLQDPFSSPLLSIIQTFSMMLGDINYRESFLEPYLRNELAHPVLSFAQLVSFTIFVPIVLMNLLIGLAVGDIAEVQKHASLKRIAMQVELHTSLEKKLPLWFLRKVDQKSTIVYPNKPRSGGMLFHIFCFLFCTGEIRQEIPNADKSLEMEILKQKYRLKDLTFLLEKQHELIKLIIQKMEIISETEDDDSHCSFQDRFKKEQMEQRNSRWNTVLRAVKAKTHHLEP

IC50 [2] | SMILES | % Inhibition of cell in BALf [1] | % Inhibition of eosinophils in BALf [1] | Total cell number in BALf [1] | Total eosinophils in BALf [1]
 | Cn1c(=O)c2c(CC(=O)Nc3nc(-c4ccc(F)c(C(F)(F)F)c4F)cs3)csc2n(C)c1=O [Compound 52] | 10% | 21% | 12.2 ± 0.5 | 5.8 ± 0.5
21.9 nM | CC(C)C(N)C(=O)OCn1c(-c2ccc(F)c(C(F)(F)F)c2F)csc1=NC(=O)Cc1csc2c1c(=O)n(C)c(=O)n2C (stereo not drawn) [Compound 97] |  |  |  | 
 | C[C@]12C=CC(=O)C=C1CC[C@@H]1[C@@H]2[C@@H](O)C[C@@]2(C)[C@H]1CC[C@]2(O)C(=O)CO [Prednisolone, reference compound] | 21% | 24% | 10.8 ± 1.0 | 5.6 ± 0.7
